Where two headings read alike, the source gives them in different places.
Molecular target: HIV-1 integrase (Human immunodeficiency virus type 1 group M subtype B, UniProt P04585)
Experiment: HIV-1 integrase inhibition assay (radiolabeled duplex substrate corresponding to the U5 end of the HIV LTR)
Type: biochemical
Protocol: For the purpose of Table 1 to 4, the HIV-1 integrase inhibition assay was carried out following a known procedure (Burke, Jr. T. R. et al., J. Med. Chem. 38, 4171-4178 (1995)). A suitable radiolabeled duplex substrate corresponding to the U5 end of the HIV LTR was used.
For the purposes of Table 1 to 4 the HIV-1 integrase inhibition assay was based on a known procedure (Hazuda, D. J. et al., Nucleic Acids Res. 22 1121-1122 (1994)).

Row | SMILES | IC50 [nM] | IC50 (Table 4, compounds of formula I′, read-out: IC50) [nM]
1 | CC(C)(C)OC[C@H](NC(=O)c1cc(O)c(O)c(O)c1)C(=O)NCCc1ccc(O)c(O)c1 [Example 43, N-[Nα-(3,4,5-Trihydroxybenzoyl)-O-tert-butyl-L-seryl]dopamine] | 152 | 
2 | CC(C)(C)OC(=O)CC[C@H](NC(=O)c1ccc(OCc2ccc(F)cc2)c(OCc2ccc(F)cc2)c1)C(=O)NCc1ccccc1 [Example 99, N-[Nα-(3,4-di-(4-Fluorobenzyloxy)benzoyl)-Oδ-tert-butyl-L-glutamyl]benzylamine] | > 10000 | 
3 | COc1ccc(NC(=O)[C@H](CCC(=O)NC(c2ccccc2)(c2ccccc2)c2ccccc2)NC(=O)/C=C/c2ccc(OCc3ccc(F)cc3)c(OCc3ccc(F)cc3)c2)cc1O [Example 112, N-[Nα-(3,4-di-(4-Fluorobenzyloxy)caffeoyl)-Nδ-trityl-L-glutaminyl]-3-hydroxy-4-methoxyaniline] | 2000 | 
4 | O=C(CCc1ccc(O)c(O)c1)N[C@@H](Cc1cn(C(c2ccccc2)(c2ccccc2)c2ccccc2)cn1)C(=O)NCCc1ccc(O)c(O)c1 [Example 27, N-(Nα-Dihydrocaffeoyl-Nτ-trityl-L-histidinyl)dopamine] | > 5000 | 
5 | Cc1ccc(C(NC(=O)CC[C@H](NC(=O)c2ccc(O)c(O)c2)C(=O)NCc2ccc(O)c(O)c2)(c2ccccc2)c2ccccc2)cc1 [Example 32, N-[Nα-(3,4-Dihydroxybenzoyl)-Nδ-methyltrityl-L-glutaminyl]-3,4-dihydroxybenzylamine] | 256 | 
6 | O=C(N[C@H](Cc1cn(C(c2ccccc2)(c2ccccc2)c2ccccc2)cn1)C(=O)NCCc1ccc(O)c(O)c1)c1ccc(O)c(O)c1 [Example 16, N-[Nα-(3,4-Dihydroxybenzoyl)-Nτ-trityl-D-histidinyl]dopamine] | 155 | 
7 | O=C(C=Cc1ccc(O)c(O)c1)NC(Cc1cn(-c2ccc([N+](=O)[O-])cc2[N+](=O)[O-])cn1)C(=O)NNC(=O)c1ccccc1O [Example 80, N1-[Nα-Caffeoyl-Nτ-(2,4-dinitrophenyl)-L-histidinyl]-N2-(2-hydroxybenzoyl)-hydrazine] | 251 | 
8 | O=C(N[C@@H](Cc1cn(C(c2ccccc2)(c2ccccc2)c2ccccc2)cn1)C(=O)NCCc1ccc(O)c(O)c1)c1ccc(O)cc1 [Example 52, N-[Nα-(4-Hydroxybenzoyl)-Nτ-trityl-L-histidinyl]dopamine] | 3300 | 
9 | O=C(N[C@@H](Cc1cn(C(c2ccccc2)(c2ccccc2)c2ccccc2)cn1)C(=O)NCc1ccc(O)c(O)c1)c1cc(O)c2cccc(O)c2n1 [Example 70, N-[Nα-(4,8-Dihydroxyquinoline-2-carbonyl)-Nτ-trityl-L-histidinyl]-3,4-dihydroxybenzylamine] | 403 | 
10 | CC(C)(C)OC[C@H](NC(=O)/C=C/c1ccc(O)c(O)c1)C(=O)NCCc1ccc(O)c(O)c1 [Example 42, N-(Nα-Caffeoyl-O-tert-butyl-L-seryl)dopamine] | 442 | 
11 | O=C(N[C@H](Cc1cn(C(c2ccccc2)(c2ccccc2)c2ccccc2)cn1)C(=O)NCCc1ccc(O)c(O)c1)c1ccc(O)c([N+](=O)[O-])c1 [Example 18, N-[Nα-(4-Hydroxy-3-nitrobenzoyl)-Nτ-trityl-D-histidinyl]dopamine] | 562 | 
12 | O=C(/C=C/c1ccc(O)c(O)c1)N[C@@H](Cc1c[nH]c2ccccc12)C(=O)NNC(=O)c1ccccc1O [Example 75, N1-(Nα-Caffeoyl-L-tryptophanyl)-N2-(2-hydroxybenzoyl)-hydrazine] | 1200 | 
13 | CC(C)(C)OC[C@H](NC(=O)c1cc(O)c2cccc(O)c2n1)C(=O)NCCc1ccc(O)c(O)c1 [Example 72, N-[Nα-(4,8-Dihydroxyquinoline-2-carbonyl)-O-tert-butyl-L-seryl]dopamine] | > 10000 | 
14 | O=C(C=Cc1ccc(OCc2ccc(F)cc2)c(OCc2ccc(F)cc2)c1)NCC(=O)NCCc1ccc(O)c(O)c1 [Example 100, N-[Nα-(3,4-di-(4-Fluorobenzyloxy)caffeoyl)-L-glycyl)dopamine] |  | 2600
15 | O=C(N[C@@H](CO)C(=O)NCCc1ccc(O)c(O)c1)c1cc(O)c(O)c(O)c1 [Example 45, N-[Nα-(3,4,5-Trihydroxybenzoyl)-L-seryl]dopamine] | 446 | 

— patent US6528655B1, “Aromatic derivatives with HIV integrase inhibitory properties” (Pharmacor, Inc., priority 2000, dated 2003)
